Assays:
TNF-α = TNF-α secretion in LPS-stimulated RAW 264.7 cells (ELISA); assay type: cell-based, mouse; conditions: sample at IC20 value; vs dexamethasone 1 μg/mL; LPS 1 μg/mL
Source text: Mouse monocyte macrophage RAW 264.7 cells (American Type Culture Collection, […]-71) were stimulated with lipopolysaccharide (LPS) or phytohemagglutinin (PHA). The LPS treated RAW 264.7 cells served as a vehicle control, of which the NO production, and the secreted cytokines were defined as 100%, whereas a negative control was non-treated RAW 264.7 cells. Dexamethasone (an anti-inflammatory drug) was used as a positive control. PBMCs (1 × 10^5 cells/well in RPMI-1640 for IL-2) and Raw cells (1 × 10^5 cells/well in DMEM for TNF-α) were seeded for 24 h in a CO2 incubator set at 37 °C and 5% CO2/95% humidified air. Then cells were treated with […] fractional extracts (IC20 value) or pure compounds (IC20 value), or dexamethasone (1 μg/mL) were added. […] After 24 h, the media were removed and centrifuged at 13,500 × g for 10 min and 100 μL of the supernatant was analysed by the protocol of R&D Systems, Minneapolis, MN, USA using ELISA technique. The absorbance was measured at 450 nm and corrected with the reference wavelength of 570 nm (Beckman CoulterDTX880, Fullerton, CA, USA). Viability of PBMCs and RAW 264.7 cells was also determined using MTT assay as described previously. IL-2 and TNF-α secretion inhibitions were calculated as bellow:4 %Cytokineinhibition=A-B/A×100 A is the optical density of the mixture without the sample, while B is the optical density of the mixture with the sample. […]

WT1 protein = WT1 protein expression by Western blot in EoL-1 cells; assay type: cell-based, human; conditions: IC20 value, 48 h, vs vehicle control
Method: Leukaemic stem cells (KG-1a) and leukaemic cells (EoL-1 and K562) were used as cell models which overexpressed WT1 protein expression. Cells were treated with crude fractional extracts and active compounds at a 20% growth inhibition (IC20 value) of each extract. Following 48-h of incubation, cells were washed. The whole protein was extracted using RIPA buffer. The protein concentration was determined by the Pierce™ BCA Protein Assay Kit (ThermoFisher Scientific, IL, USA). Extracted protein sample at 30 − 50 μg was loaded to 12% SDS-PAGE and then transferred to PVDF membranes. The method was done as previously described. The specific protein bands were determined by Luminata™ Forte Western HRP substrate (Merck, Darmstadt, Germany) and exposed to X-ray film (Sakura, Japan). Quantity One 1-D Analysis software (Bio-Rad, USA) was used to quantify densitometry. The density values of WT1 bands were normalized to GAPDH bands.

KG-1a cells = assay: Total cell number by trypan blue exclusion, KG-1a cells; assay type: cell-based, human; conditions: IC20 value, 48 h, vs vehicle control
Method: According to the principle of trypan blue exclusion, viable cells with intact membranes can exclude trypan blue dye, while dead cells with compromised membranes are stained by the trypan blue dye solution. A cell suspension and trypan blue dye solution (0.2%) were mixed, and viable and dead cells were counted under microscope using a hemacytometer. Then, the percentage of viable cells was calculated. KG-1a, EoL-1 and K562 cells were cultured with crude fractional extracts and active pure compounds at various concentrations (10 − 20% growth inhibition; IC10 − IC20 values) of each extract for 48 h, at a 20% growth inhibition (IC20 value) of each extract for 24 and 48 h. Following incubation, cells were harvested, and the total cell number was counted using trypan blue exclusion method. Three independent experiments were plotted as a dose–response curve and compared with the vehicle control. Meanwhile, the total cell number of each cell line after fractional extract and pure compound treatments at 24 and 48 h were calculated and plotted as a time-response curve. Slopes from each graph were considered as the rate of cell proliferation.

Row | Structure (SMILES) | TNF-α inhibition (TNF-α) | suppression of WT1 protein expression in EoL-1 cells (WT1 protein) [%] | suppression of WT1 protein expression in EoL-1 cells (WT1 protein; listed as resveratrol) [%] | decrease of total cell number, KG-1a cells (KG-1a cells) [%]
1 | O=c1c(O)c(-c2ccc(O)c(O)c2)oc2cc(O)cc(O)c12 [Quercetin, quercetin] | significantly more potent inhibition of IL-2, TNF-α, and NO than dexamethasone |  |  | 
2 | Oc1ccc(/C=C/c2cc(O)cc(O)c2)cc1 [Resveratrol, resveratrol] |  | 76.73 | 76.73 ± 4.08 | 39.23
